# “And” between values parts separate entries of the source, which are not always exact repeats. Equal values may be shown once.
# What was measured:
# Assay type in all cases: functional
# OVCAR-3 = assay: Growth inhibition of human OVCAR-3 cells assessed as growth percentage at 100 uM incubated for 48 hrs by sulforhodamine B assay relative to control; conditions: read-out: Activity
# CAKI-1 = assay: Growth inhibition of human CAKI-1 cells assessed as growth percentage at 1 uM incubated for 48 hrs by sulforhodamine B assay relative to control; conditions: read-out: Activity
# HCC 2998 [1] = assay: Growth inhibition of human HCC 2998 cells assessed as growth percentage at 0.01 uM incubated for 48 hrs by sulforhodamine B assay relative to control; conditions: read-out: Activity
# COLO 205 [2] = assay: Growth inhibition of human COLO 205 cells assessed as growth percentage at 100 uM incubated for 48 hrs by sulforhodamine B assay relative to control; conditions: read-out: Activity
# M14 [3] = assay: Growth inhibition of human M14 cells assessed as growth percentage at 10 uM incubated for 48 hrs by sulforhodamine B assay relative to control; conditions: read-out: Activity
# UACC-257 = assay: Growth inhibition of human UACC-257 cells assessed as growth percentage at 100 uM incubated for 48 hrs by sulforhodamine B assay relative to control; conditions: read-out: Activity
# HOP-92 = assay: Growth inhibition of human HOP-92 cells assessed as growth percentage at 10 uM incubated for 48 hrs by sulforhodamine B assay relative to control; conditions: read-out: Activity
# HOP-62 = assay: Growth inhibition of human HOP-62 cells incubated for 48 hrs by sulforhodamine B assay
# SNB-75 = assay: Growth inhibition of human SNB-75 cells assessed as growth percentage at 0.1 uM incubated for 48 hrs by sulforhodamine B assay relative to control; conditions: read-out: Activity
# A549 = assay: Growth inhibition of human A549/ATCC cells assessed as growth percentage at 0.1 uM incubated for 48 hrs by sulforhodamine B assay relative to control; conditions: read-out: Activity
# MDA-MB-468 = assay: Growth inhibition of human MDA-MB-468 cells assessed as growth percentage at 0.01 uM incubated for 48 hrs by sulforhodamine B assay relative to control; conditions: read-out: Activity
# NCI/ADR-RES [4] = assay: Growth inhibition of human NCI/ADR-RES cells incubated for 48 hrs by sulforhodamine B assay; conditions: for CC50: read-out: LC50 (the source's name)
# TK-10 [5] = assay: Growth inhibition of human TK-10 cells assessed as growth percentage at 1 uM incubated for 48 hrs by sulforhodamine B assay relative to control; conditions: read-out: Activity
# PC-3 = assay: Growth inhibition of human PC-3 cells assessed as growth percentage at 0.01 uM incubated for 48 hrs by sulforhodamine B assay relative to control; conditions: read-out: Activity
# SK-OV-3 = assay: Growth inhibition of human SK-OV-3 cells assessed as growth percentage at 100 uM incubated for 48 hrs by sulforhodamine B assay relative to control; conditions: read-out: Activity
# IGROV-1 = assay: Growth inhibition of human IGROV-1 cells incubated for 48 hrs by sulforhodamine B assay
# COLO 205 [6] = assay: Growth inhibition of human COLO 205 cells assessed as growth percentage at 10 uM incubated for 48 hrs by sulforhodamine B assay relative to control; conditions: read-out: Activity
# SN12C = assay: Growth inhibition of human SN12C cells assessed as growth percentage at 100 uM incubated for 48 hrs by sulforhodamine B assay relative to control; conditions: read-out: Activity
# MCF7 = assay: Growth inhibition of human MCF7 cells assessed as growth percentage at 0.1 uM incubated for 48 hrs by sulforhodamine B assay relative to control; conditions: read-out: Activity
# SK-MEL-2 = assay: Growth inhibition of human SK-MEL-2 cells incubated for 48 hrs by sulforhodamine B assay
# Malme-3M = assay: Growth inhibition of human Malme-3M cells assessed as growth percentage at 0.01 uM incubated for 48 hrs by sulforhodamine B assay relative to control; conditions: read-out: Activity
# NCI-H226 = assay: Growth inhibition of human NCI-H226 cells assessed as growth percentage at 1 uM incubated for 48 hrs by sulforhodamine B assay relative to control; conditions: read-out: Activity
# 786-0 = assay: Growth inhibition of human 786-0 cells incubated for 48 hrs by sulforhodamine B assay
# RPMI-8226 = assay: Growth inhibition of human RPMI-8226 cells assessed as growth percentage at 0.1 uM incubated for 48 hrs by sulforhodamine B assay relative to control; conditions: read-out: Activity
# SF-295 [7] = assay: Growth inhibition of human SF-295 cells assessed as growth percentage at 1 uM incubated for 48 hrs by sulforhodamine B assay relative to control; conditions: read-out: Activity
# A498 = assay: Growth inhibition of human A498 cells assessed as growth percentage at 10 uM incubated for 48 hrs by sulforhodamine B assay relative to control; conditions: read-out: Activity
# NCI-H322M [8] = assay: Growth inhibition of human NCI-H322M cells assessed as growth percentage at 0.01 uM incubated for 48 hrs by sulforhodamine B assay relative to control; conditions: read-out: Activity
# BT-549 = assay: Growth inhibition of human BT-549 cells assessed as growth percentage at 0.01 uM incubated for 48 hrs by sulforhodamine B assay relative to control; conditions: read-out: Activity
# NCI-H322M [9] = assay: Growth inhibition of human NCI-H322M cells assessed as growth percentage at 1 uM incubated for 48 hrs by sulforhodamine B assay relative to control; conditions: read-out: Activity
# ACHN = assay: Growth inhibition of human ACHN cells assessed as growth percentage at 10 uM incubated for 48 hrs by sulforhodamine B assay relative to control; conditions: read-out: Activity
# HCC 2998 [10] = assay: Growth inhibition of human HCC 2998 cells assessed as growth percentage at 10 uM incubated for 48 hrs by sulforhodamine B assay relative to control; conditions: read-out: Activity
# TK-10 [11] = assay: Growth inhibition of human TK-10 cells assessed as growth percentage at 0.1 uM incubated for 48 hrs by sulforhodamine B assay relative to control; conditions: read-out: Activity
# M14 [12] = assay: Growth inhibition of human M14 cells assessed as growth percentage at 0.01 uM incubated for 48 hrs by sulforhodamine B assay relative to control; conditions: read-out: Activity
# Hs-578T = assay: Growth inhibition of human Hs-578T cells assessed as growth percentage at 10 uM incubated for 48 hrs by sulforhodamine B assay relative to control; conditions: read-out: Activity
# SNB-19 = assay: Growth inhibition of human SNB-19 cells incubated for 48 hrs by sulforhodamine B assay
# DU-145 = assay: Growth inhibition of human DU-145 cells incubated for 48 hrs by sulforhodamine B assay; conditions: for GI50 / TGI: DU-145
# SF-295 [13] = assay: Growth inhibition of human SF-295 cells assessed as growth percentage at 10 uM incubated for 48 hrs by sulforhodamine B assay relative to control; conditions: read-out: Activity
# KM12 = assay: Growth inhibition of human KM12 cells assessed as growth percentage at 0.01 uM incubated for 48 hrs by sulforhodamine B assay relative to control; conditions: read-out: Activity
# NCI/ADR-RES [14] = assay: Growth inhibition of human NCI/ADR-RES cells assessed as growth percentage at 0.01 uM incubated for 48 hrs by sulforhodamine B assay relative to control; conditions: read-out: Activity
# [15] = read-out: LC50 (the source's name)
smiles,measurement,setting,value
CCCCCCCC(=O)Nc1nc2[nH]c(CN3CCN(Cc4cccc(F)c4)CC3)c(CN3CCN(Cc4cccc(F)c4)CC3)c2c(=O)[nH]1,growth at 100 µM,OVCAR-3,-73%
same,growth at 1 µM,CAKI-1,70%
same,growth at 0.01 µM,HCC 2998 [1],99%
same,growth at 100 µM,COLO 205 [2],-94%
same,growth at 10 µM,M14 [3],-91.3%
same,growth at 100 µM,UACC-257,-91%
same,growth at 10 µM,HOP-92,-7.31%
same,GI50,HOP-62,1.42 µM
same,TGI,HOP-62,2.85 µM
same,CC50,HOP-62; [15],5.7 µM
same,growth at 0.1 µM,SNB-75,82%
same,growth at 0.1 µM,A549,98%
same,growth at 0.01 µM,MDA-MB-468,92%
same,GI50,"NCI/ADR-RES [4]; Homo sapiens, NCI/ADR-RES",1.5 µM
same,TGI,"NCI/ADR-RES [4]; Homo sapiens, NCI/ADR-RES",3.01 µM
same,CC50,"NCI/ADR-RES [4]; Homo sapiens, NCI/ADR-RES",6.04 µM
same,growth at 1 µM,TK-10 [5],94%
same,growth at 0.01 µM,PC-3,98%
same,growth at 100 µM,SK-OV-3,-99%
same,GI50,IGROV-1,1.43 µM
same,TGI,IGROV-1,3.2 µM
same,CC50,IGROV-1; [15],7.14 µM
same,growth at 10 µM,COLO 205 [6],-90.9%
same,growth at 100 µM,SN12C,-69%
same,growth at 0.1 µM,MCF7,87%
same,GI50,SK-MEL-2; 48 h,1.57 µM
same,TGI,SK-MEL-2; 48 h,3.03 µM
same,GI50,"SK-MEL-2; Homo sapiens, SK-MEL-2, 48 h",2.21 µM
same,TGI,"SK-MEL-2; Homo sapiens, SK-MEL-2, 48 h",4.12 µM
same,CC50,"SK-MEL-2; Homo sapiens, SK-MEL-2, read-out: LC50 (the source's name)",5.87 µM
same,growth at 0.01 µM,Malme-3M,98%
same,growth at 1 µM,NCI-H226,91%
same,GI50,786-0,1.54 µM
same,LC50 (concentration killing 50% of cells),786-0,5.67 µM
same,TGI,786-0,2.95 µM
same,growth at 0.1 µM,RPMI-8226,97%
same,growth at 1 µM,SF-295 [7],74%
same,growth at 10 µM,A498,61.6%
same,growth at 0.01 µM,NCI-H322M [8],94%
same,growth at 0.01 µM,BT-549,110%
same,growth at 1 µM,NCI-H322M [9],77%
same,growth at 10 µM,ACHN,-96.6%
same,growth at 10 µM,HCC 2998 [10],-81.8%
same,growth at 0.1 µM,TK-10 [11],96%
same,growth at 0.01 µM,M14 [12],100%
same,growth at 10 µM,Hs-578T,-49.4%
same,GI50,SNB-19,1.56 µM
same,LC50 (concentration killing 50% of cells),SNB-19,6.34 µM
same,TGI,SNB-19,3.14 µM
same,GI50,DU-145,1.1 µM
same,TGI,DU-145,2.42 µM
same,growth at 10 µM,SF-295 [13],-69.2%
same,growth at 0.01 µM,KM12,96%
same,growth at 0.01 µM,NCI/ADR-RES [14],100%
Nc1nc2[nH]c(CN3CCN(c4cc(Cl)cc(Cl)c4)CC3)c(CN3CCN(c4cc(Cl)cc(Cl)c4)CC3)c2c(=O)[nH]1,growth at 100 µM,OVCAR-3,-84%
same,growth at 1 µM,CAKI-1,91%
same,growth at 0.01 µM,HCC 2998 [1],106%
same,growth at 100 µM,COLO 205 [2],-45%
same,growth at 10 µM,M14 [3],79.7%
same,growth at 100 µM,UACC-257,-57%
same,growth at 10 µM,HOP-92,66.2%
same,GI50,HOP-62,1.67 µM
same,TGI,HOP-62,3.45 µM
same,growth at 0.1 µM,SNB-75,89%
same,growth at 0.1 µM,A549,94%
same,growth at 0.01 µM,MDA-MB-468,97%
same,TGI,NCI/ADR-RES [4],100 µM and > 1 µM
same,CC50,NCI/ADR-RES [4],> 100 µM
same,growth at 1 µM,TK-10 [5],100%
same,growth at 0.01 µM,PC-3,97%
same,growth at 100 µM,SK-OV-3,-74%
same,GI50,IGROV-1,1.95 µM
same,TGI,IGROV-1,3.98 µM
same,growth at 10 µM,COLO 205 [6],10.9%
same,growth at 100 µM,SN12C,-35%
same,growth at 0.1 µM,MCF7,90%
same,GI50,"SK-MEL-2; Homo sapiens, SK-MEL-2, 48 h",2.21 µM
same,TGI,"SK-MEL-2; Homo sapiens, SK-MEL-2, 48 h",4.12 µM
same,growth at 0.01 µM,Malme-3M,95%
same,growth at 1 µM,NCI-H226,93%
same,GI50,786-0,1.57 µM
same,TGI,786-0,3.18 µM
same,growth at 0.1 µM,RPMI-8226,102%
same,growth at 1 µM,SF-295 [7],89%
same,growth at 10 µM,A498,64.4%
same,growth at 0.01 µM,NCI-H322M [8],102%
same,growth at 0.01 µM,BT-549,91%
same,growth at 1 µM,NCI-H322M [9],100%
same,growth at 10 µM,ACHN,96.8%
same,growth at 10 µM,HCC 2998 [10],24%
same,growth at 0.1 µM,TK-10 [11],103%
same,growth at 0.01 µM,M14 [12],93%
same,growth at 10 µM,Hs-578T,98.8%
same,GI50,SNB-19,1.77 µM
same,TGI,SNB-19,3.67 µM
same,GI50,DU-145,1.92 µM
same,TGI,DU-145,3.46 µM
same,CC50,"DU-145; DU-145, 48 h, read-out: LC50 (the source's name)",6.24 µM
same,growth at 10 µM,SF-295 [13],98.4%
same,growth at 0.01 µM,KM12,101%
same,growth at 0.01 µM,NCI/ADR-RES [14],101%
